Assay results as given in US20220089568A1 (Janssen Biotech, Inc., priority 2019, published 2022).

Legend:
human DHODH = target: T1, human DHODH (Homo sapiens, UniProt Q02127); experiment: DHODH Enzymatic Assay; type: biochemical; conditions: purified human DHODH; DCIP absorbance, end-point mode
T1 construct: purchased Proteros PR-0044
In short: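 Purified human DHODH activity read as absorbance of DCIP, the terminal electron acceptor, in […] pH 7.5, 150 mM NaCl, 0.5 mM EDTA, 0.1% Triton X-100. Reaction started with a substrate mix of 20 mM DHO, 5 mM CoQ6 and 1 mM DCIP in assay buffer.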

MOLM-13 cells = experiment: MOLM-13 Cellular Assay; type: cell-based; conditions: Homo sapiens, 72 hours exposure, cell viability by CellTiter-Glo
Procedure: The day prior to assay set-up, cells were pelleted, resuspended in fresh media, counted, and cells were plated at 0.4×10^6 cell/mL in a T150 flask. […] Cells were exposed to different concentrations of test compounds at 37° C., 5% CO2 for 72 hours immediately after seeding.

T1 sequence (Q02127 whole entry): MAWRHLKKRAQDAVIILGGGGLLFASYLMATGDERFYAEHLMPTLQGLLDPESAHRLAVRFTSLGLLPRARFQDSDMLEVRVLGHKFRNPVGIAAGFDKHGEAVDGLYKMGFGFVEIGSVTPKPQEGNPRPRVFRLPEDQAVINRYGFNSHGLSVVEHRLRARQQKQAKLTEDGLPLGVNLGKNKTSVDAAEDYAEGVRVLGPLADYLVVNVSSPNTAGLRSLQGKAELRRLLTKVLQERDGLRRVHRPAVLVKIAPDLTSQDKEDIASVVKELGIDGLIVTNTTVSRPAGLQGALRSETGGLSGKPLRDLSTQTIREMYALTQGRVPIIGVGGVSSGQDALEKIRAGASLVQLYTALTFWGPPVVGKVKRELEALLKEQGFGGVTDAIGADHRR

| SMILES | EC50 (human DHODH) | EC50 (MOLM-13 cells) |
| --- | --- | --- |
| CCn1c(CO)nn(-c2nc(O[C@@H](C)C(F)(F)F)c(C(=O)Nc3c[nH]nc3C#N)cc2F)c1=O [Example 100, N-(3-Cyano-1H-pyrazol-4-yl)-6-[4-ethyl-3-(hydroxymethyl)-5-oxo-1,2,4-triazol-1-yl]-5-fluoro-2-[(1S)-2,2,2-trifluoro-1-methyl-ethoxy]pyridine-3-carboxamide] | > 100 nM | 19 nM |
| Cc1ccnc(Cl)c1NC(=O)c1cc(F)c(-n2nc(CF)n(CCCO)c2=O)nc1O[C@@H](C)C(F)(F)F [Example 101, N-(2-Chloro-4-methyl-3-pyridyl)-5-fluoro-6-[3-(fluoromethyl)-4-(3-hydroxypropyl)-5-oxo-1,2,4-triazol-1-yl]-2-[(1S)-2,2,2-trifluoro-1-methyl-ethoxy]pyridine-3-carboxamide] | 39.4 nM | 19.4 nM |
| CCn1c(CO)nn(-c2nc(O[C@@H](C)C(F)(F)F)c(C(=O)Nc3c(Cl)ncc(C)c3C)cc2F)c1=O [Example 102, N-(2-Chloro-4,5-dimethyl-3-pyridyl)-6-[4-ethyl-3-(hydroxymethyl)-5-oxo-1,2,4-triazol-1-yl]-5-fluoro-2-[(1S)-2,2,2-trifluoro-1-methyl-ethoxy]pyridine-3-carboxamide] | 20.1 nM | 1.39 nM |
| CCn1c(CO)nn(-c2nc(O[C@@H](C)C(F)(F)F)c(C(=O)Nc3c(OC)cc(C)nc3C)cc2F)c1=O [Example 103, 6-[4-ethyl-3-(hydroxymethyl)-5-oxo-1,2,4-triazol-1-yl]-5-fluoro-N-(4-methoxy-2,6-dimethyl-3-pyridyl)-2-[(1S)-2,2,2-trifluoro-1-methyl-ethoxy]pyridine-3-carboxamide] | > 100 nM | 17.3 nM |
| CCn1c(CO)nn(-c2nc(O[C@@H](C)C(F)(F)F)c(C(=O)Nc3nccc(OC)c3Cl)cc2F)c1=O [Example 104, N-(3-Chloro-4-methoxy-2-pyridyl)-6-[4-ethyl-3-(hydroxymethyl)-5-oxo-1,2,4-triazol-1-yl]-5-fluoro-2-[(1S)-2,2,2-trifluoro-1-methyl-ethoxy]pyridine-3-carboxamide] | 6.62 nM | 7.59 nM |
| CCOc1ccnc(NC(=O)c2cc(F)c(-n3nc(CO)n(CC)c3=O)nc2O[C@@H](C)C(F)(F)F)c1Cl [Example 105, N-(3-Chloro-4-ethoxy-2-pyridyl)-6-[4-ethyl-3-(hydroxymethyl)-5-oxo-1,2,4-triazol-1-yl]-5-fluoro-2-[(1S)-2,2,2-trifluoro-1-methyl-ethoxy]pyridine-3-carboxamide] | 3.4 nM | 4.6 nM |
| CCn1c(CO)nn(-c2nc(O[C@@H](C)C(F)(F)F)c(C(=O)Nc3c(C)cc(OC)nc3Cl)cc2F)c1=O [Example 106, N-(2-Chloro-6-methoxy-4-methyl-3-pyridyl)-6-[4-ethyl-3-(hydroxymethyl)-5-oxo-1,2,4-triazol-1-yl]-5-fluoro-2-[(1S)-2,2,2-trifluoro-1-methyl-ethoxy]pyridine-3-carboxamide] | 2.9 nM | 0.792 nM |
| Cc1[nH]nc(Cl)c1NC(=O)c1cc(F)c(-n2nc(CF)n(CCCO)c2=O)nc1O[C@@H](C)C(F)(F)F [Example 107, N-(3-Chloro-5-methyl-1H-pyrazol-4-yl)-5-fluoro-6-[3-(fluoromethyl)-4-(3-hydroxypropyl)-5-oxo-1,2,4-triazol-1-yl]-2-[(1S)-2,2,2-trifluoro-1-methyl-ethoxy]pyridine-3-carboxamide] | 18.1 nM | 1.5 nM |
| CCn1c(CF)nn(-c2nc(OC(C)C)c(C(=O)Nc3c(C)n[nH]c3Cl)cc2F)c1=O [Example 108, N-(5-Chloro-3-methyl-1H-pyrazol-4-yl)-6-[4-ethyl-3-(fluoromethyl)-5-oxo-1,2,4-triazol-1-yl]-5-fluoro-2-isopropoxy-pyridine-3-carboxamide] | 0.851 nM | 0.17 nM |
| CCn1c(CO)nn(-c2nc(O[C@@H](C)C(F)(F)F)c(C(=O)Nc3ccnnc3OC)cc2F)c1=O [Example 109, 6-[4-Ethyl-3-(hydroxymethyl)-5-oxo-1,2,4-triazol-1-yl]-5-fluoro-N-(3-methoxypyridazin-4-yl)-2-[(1S)-2,2,2-trifluoro-1-methyl-ethoxy]pyridine-3-carboxamide] | > 100 nM | > 100 nM |
| CCn1c(CO)nn(-c2nc(O[C@@H](C)C(F)(F)F)c(C(=O)Nc3c(Cl)cnc(OC)c3C)cc2F)c1=O [Example 110, N-(5-Chloro-2-methoxy-3-methyl-4-pyridyl)-6-[4-ethyl-3-(hydroxymethyl)-5-oxo-1,2,4-triazol-1-yl]-5-fluoro-2-[(1S)-2,2,2-trifluoro-1-methyl-ethoxy]pyridine-3-carboxamide] | 0.367 nM | 0.282 nM |
| CCn1c(CO)nn(-c2nc(O[C@@H](C)C(F)(F)F)c(C(=O)Nc3c(C)n[nH]c3C(F)(F)F)cc2F)c1=O [Example 111, 6-[4-Ethyl-3-(hydroxymethyl)-5-oxo-1,2,4-triazol-1-yl]-5-fluoro-N-[3-methyl-5-(trifluoromethyl)-1H-pyrazol-4-yl]-2-[(1S)-2,2,2-trifluoro-1-methyl-ethoxy]pyridine-3-carboxamide] | 1.93 nM | 0.345 nM |
| CCn1c(CO)nn(-c2nc(O[C@@H](C)C(F)(F)F)c(C(=O)Nc3c(Cl)n[nH]c3C(F)(F)F)cc2F)c1=O [Example 112, N-[3-Chloro-5-(trifluoromethyl)-1H-pyrazol-4-yl]-6-[4-ethyl-3-(hydroxymethyl)-5-oxo-1,2,4-triazol-1-yl]-5-fluoro-2-[(1S)-2,2,2-trifluoro-1-methyl-ethoxy]pyridine-3-carboxamide] | 4.12 nM | 0.303 nM |
| CCn1c(CO)nn(-c2nc(O[C@@H](C)C(F)(F)F)c(C(=O)Nc3c(C)cc(Cl)nc3OC)cc2F)c1=O [Example 113, N-(6-Chloro-2-methoxy-4-methyl-3-pyridyl)-6-[4-ethyl-3-(hydroxymethyl)-5-oxo-1,2,4-triazol-1-yl]-5-fluoro-2-[(1S)-2,2,2-trifluoro-1-methyl-ethoxy]pyridine-3-carboxamide] | 1.07 nM | 0.416 nM |
| CCn1c(CO)nn(-c2nc(O[C@@H](C)C(F)(F)F)c(C(=O)Nc3c(C)cc(C)nc3OC)cc2F)c1=O [Example 114, 6-[4-Ethyl-3-(hydroxymethyl)-5-oxo-1,2,4-triazol-1-yl]-5-fluoro-N-(2-methoxy-4,6-dimethyl-3-pyridyl)-2-[(1S)-2,2,2-trifluoro-1-methyl-ethoxy]pyridine-3-carboxamide] | 0.415 nM | 0.368 nM |
| Cc1n[nH]c(Cl)c1NC(=O)c1cc(F)c(-n2nc(CF)n(CCO)c2=O)nc1O[C@@H](C)C(F)(F)F [Example 115, N-(5-Chloro-3-methyl-1H-pyrazol-4-yl)-5-fluoro-6-[3-(fluoromethyl)-4-(2-hydroxyethyl)-5-oxo-1,2,4-triazol-1-yl]-2-[(1S)-2,2,2-trifluoro-1-methyl-ethoxy]pyridine-3-carboxamide] | 4.1 nM | 1.25 nM |
| Cc1ccnc(Cl)c1NC(=O)c1cc(F)c(-n2nc(CF)n(CCO)c2=O)nc1O[C@@H](C)C(F)(F)F [Example 116, N-(2-Chloro-4-methyl-3-pyridyl)-5-fluoro-6-[3-(fluoromethyl)-4-(2-hydroxyethyl)-5-oxo-1,2,4-triazol-1-yl]-2-[(1S)-2,2,2-trifluoro-1-methyl-ethoxy]pyridine-3-carboxamide] | 20.5 nM | 7.23 nM |
| CCn1c(CO)nn(-c2nc(O[C@@H](C)C(F)(F)F)c(C(=O)Nc3c(F)cnc(OC)c3C#N)cc2F)c1=O [Example 117, N-(3-Cyano-5-fluoro-2-methoxy-4-pyridyl)-6-[4-ethyl-3-(hydroxymethyl)-5-oxo-1,2,4-triazol-1-yl]-5-fluoro-2-[(1S)-2,2,2-trifluoro-1-methyl-ethoxy]pyridine-3-carboxamide] | 1.03 nM | 15.6 nM |
| CCn1c(CO)nn(-c2nc(O[C@@H](C)C(F)(F)F)c(C(=O)Nc3ncc(OC)cc3Cl)cc2F)c1=O [Example 118, N-(3-Chloro-5-methoxy-2-pyridyl)-6-[4-ethyl-3-(hydroxymethyl)-5-oxo-1,2,4-triazol-1-yl]-5-fluoro-2-[(1S)-2,2,2-trifluoro-1-methyl-ethoxy]pyridine-3-carboxamide] | 4.64 nM | 6.38 nM |
| CCn1c(CO)nn(-c2nc(O[C@@H](C)C(F)(F)F)c(C(=O)Nc3c(OC)cccc3OC)cc2F)c1=O [Example 119, N-(2,6-Dimethoxyphenyl)-6-[4-ethyl-3-(hydroxymethyl)-5-oxo-1,2,4-triazol-1-yl]-5-fluoro-2-[(1S)-2,2,2-trifluoro-1-methyl-ethoxy]pyridine-3-carboxamide] | 2.25 nM | 1.48 nM |
| CCn1c(CO)nn(-c2nc(O[C@@H](C)C(F)(F)F)c(C(=O)Nc3ccccc3C)cc2F)c1=O [Example 120, 6-[4-Ethyl-3-(hydroxymethyl)-5-oxo-1,2,4-triazol-1-yl]-5-fluoro-N-(o-tolyl)-2-[(1S)-2,2,2-trifluoro-1-methyl-ethoxy]pyridine-3-carboxamide] | 0.246 nM | < 0.169 nM |
| CCn1c(CO)nn(-c2nc(O[C@@H](C)C(F)(F)F)c(C(=O)Nc3c(OC)n[nH]c3C)cc2F)c1=O [Example 121, 6-[4-Ethyl-3-(hydroxymethyl)-5-oxo-1,2,4-triazol-1-yl]-5-fluoro-N-(3-methoxy-5-methyl-1H-pyrazol-4-yl)-2-[(1S)-2,2,2-trifluoro-1-methyl-ethoxy]pyridine-3-carboxamide] | 23 nM | 2.47 nM |
| CCn1c(CO)nn(-c2nc(O[C@@H](C)C(F)(F)F)c(C(=O)Nc3c(OC)cncc3OC)cc2F)c1=O [Example 122, N-(3,5-Dimethoxy-4-pyridyl)-6-[4-ethyl-3-(hydroxymethyl)-5-oxo-1,2,4-triazol-1-yl]-5-fluoro-2-[(1S)-2,2,2-trifluoro-1-methyl-ethoxy]pyridine-3-carboxamide] | > 100 nM | 9.1 nM |
